From ChEMBL document CHEMBL1139663, “6H-Benzo[c]chromen-6-one derivatives as selective ERbeta agonists” (Bioorg Med Chem Lett, 2006)

Columns and labels:
Estrogen receptor beta [1] = target: T1, Estrogen receptor beta (Homo sapiens, UniProt Q92731)
Description: Binding affinity to ERbeta

Estrogen receptor = target: T2, Estrogen receptor (Homo sapiens, UniProt P03372)
T2 sequence (P03372 whole entry): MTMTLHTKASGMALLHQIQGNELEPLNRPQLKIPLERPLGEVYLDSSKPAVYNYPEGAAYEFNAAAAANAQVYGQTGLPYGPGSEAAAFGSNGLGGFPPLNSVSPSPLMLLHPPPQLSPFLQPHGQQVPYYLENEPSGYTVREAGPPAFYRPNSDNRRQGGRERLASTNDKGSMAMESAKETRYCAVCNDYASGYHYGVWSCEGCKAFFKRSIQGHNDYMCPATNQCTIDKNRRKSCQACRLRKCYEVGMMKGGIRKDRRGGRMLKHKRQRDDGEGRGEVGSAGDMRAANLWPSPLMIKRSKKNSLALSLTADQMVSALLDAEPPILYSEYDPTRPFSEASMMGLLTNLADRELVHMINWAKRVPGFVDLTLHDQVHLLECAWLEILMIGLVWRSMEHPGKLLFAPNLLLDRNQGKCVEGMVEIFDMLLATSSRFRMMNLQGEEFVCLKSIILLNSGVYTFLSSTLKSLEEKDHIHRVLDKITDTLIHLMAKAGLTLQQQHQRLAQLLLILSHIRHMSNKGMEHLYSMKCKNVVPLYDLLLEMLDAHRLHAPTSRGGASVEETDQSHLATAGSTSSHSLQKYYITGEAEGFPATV
Description: Binding affinity to ERalpha

Estrogen receptor beta [2] = target: T1, Estrogen receptor beta; remark: listed apart in the source
Description: Binding affinity to ERbeta in presence of serum

Estrogen receptor beta [3] = target: T1, Estrogen receptor beta; remark: listed apart in the source
Description: Binding affinity to ERbeta in HTRF coactivator recruitment assay

T1 sequence (Q92731 whole entry): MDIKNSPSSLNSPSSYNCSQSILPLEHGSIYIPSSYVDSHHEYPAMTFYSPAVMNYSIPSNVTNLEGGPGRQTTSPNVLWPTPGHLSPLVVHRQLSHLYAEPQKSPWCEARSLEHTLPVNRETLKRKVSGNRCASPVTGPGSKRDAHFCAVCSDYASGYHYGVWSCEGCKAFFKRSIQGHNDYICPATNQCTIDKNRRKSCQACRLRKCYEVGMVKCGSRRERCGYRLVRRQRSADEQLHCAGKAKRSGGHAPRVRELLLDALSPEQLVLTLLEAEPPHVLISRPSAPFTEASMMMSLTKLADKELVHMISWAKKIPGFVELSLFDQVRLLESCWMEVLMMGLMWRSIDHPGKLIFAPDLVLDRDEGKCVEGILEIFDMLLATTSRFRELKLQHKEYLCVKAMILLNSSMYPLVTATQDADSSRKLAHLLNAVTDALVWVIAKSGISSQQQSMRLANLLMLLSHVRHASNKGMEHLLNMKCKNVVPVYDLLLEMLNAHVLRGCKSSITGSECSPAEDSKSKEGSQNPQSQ

Structure (SMILES) | IC50 (Estrogen receptor beta [1]) | IC50 (Estrogen receptor) | IC50 (Estrogen receptor beta [2]) | EC50 (Estrogen receptor beta [3])
Cc1cc(O)cc2c1-c1ccc(O)c(C)c1OC2 | 0.074 µM | 1.03 µM |  | 
Cc1c(O)ccc2c1oc(=O)c1c(C)c(NS(C)(=O)=O)ccc12 | 0.433 µM | 4.26 µM |  | 
CCc1c(O)ccc2c1c(=O)oc1c(F)c(O)ccc12 | 0.021 µM | 0.228 µM |  | 
C=Cc1cc(C)cc2c(=O)oc3c(C)c(O)ccc3c12 | 0.01 µM | 10 µM | 1.28 µM | > 1 µM
CCc1cc(O)cc2c(=O)oc3c(C)c(O)ccc3c12 | 0.091 µM | 1.78 µM |  | 
Cc1cc(C)c2c(c1)c(=O)oc1cc(O)ccc12 | 0.09 µM | 0.585 µM |  | 
Cc1c(O)ccc2c1oc(=O)c1cc(O)ccc12 | 0.046 µM | 0.654 µM |  | 
Cc1c(O)c(Cl)c(C)c2c1c(=O)oc1c(Cl)c(O)ccc12 | 0.022 µM | 0.597 µM |  | 
C=CCc1cc(C)cc2c(=O)oc3c(C)c(O)ccc3c12 | 0.035 µM | 10 µM |  | 
O=c1oc2c(Cl)c(O)ccc2c2cc(F)c(O)c(Cl)c12 | 0.18 µM | 11.6 µM |  | 
CCc1c(O)ccc2c1oc(=O)c1cc(Br)ccc12 | 2.34 µM | 5.46 µM |  | 
CCCC1Oc2c(ccc(O)c2C)-c2c(C)cc(O)cc21 (stereo not drawn) | 0.022 µM | 0.626 µM |  | 
CCC1Oc2c(ccc(O)c2C)-c2ccc(O)c(C)c21 (stereo not drawn) | 0.0032 µM | 0.101 µM |  | 
COc1ccc2c(c1C)c(=O)oc1c(C)c(O)ccc12 | 0.117 µM | 1 µM |  | 
C=Cc1cccc2c(=O)oc3c(C)c(O)ccc3c12 | 0.208 µM | > 10 µM |  | 
Cc1c(O)ccc2c1oc(=O)c1cc(Br)ccc12 | 0.128 µM | > 10 µM |  | 
C=Cc1ccc2c(c1)c(=O)oc1c(C)c(O)ccc12 | 0.31 µM | 4.59 µM |  | 
CCc1c(O)ccc2c1c(=O)oc1c(C)c(O)ccc12 | 0.014 µM | 0.484 µM |  | 
Cc1cc(Br)c2c(c1)c(=O)oc1c(C)c(O)ccc12 | 0.044 µM | 3.12 µM |  | 
Cc1cc(O)cc2c1-c1ccc(O)c(C)c1OC2CC(C)C (stereo not drawn) | 0.049 µM | 0.627 µM |  | 

Structure (SMILES) | IC50 (Estrogen receptor beta [1]) | IC50 (Estrogen receptor) | IC50 (Estrogen receptor beta [2]) | EC50 (Estrogen receptor beta [3])
Cc1c(O)ccc2c1oc(=O)c1cccc(C)c12 | 0.326 µM | > 10 µM |  | 
CCC1Oc2c(ccc(O)c2C)-c2c(C)cc(O)c(C)c21 (stereo not drawn) | 0.0023 µM | 0.129 µM |  | 
CC/C=C/c1cc2c(cc1Br)c(=O)oc1c(C)c(O)ccc12 | 0.026 µM | 1.09 µM |  | 
Cc1cc(O)c(C)c2c1-c1ccc(O)c(C)c1OC2C (stereo not drawn) | 0.009 µM | 0.237 µM |  | 
Cc1c(O)ccc2c1oc(=O)c1c(C)c(O)cc(C)c12 | 0.0057 µM | 0.716 µM |  | 
Cc1cc(C)c2c(c1)c(=O)oc1c(C)c(O)ccc12 | 0.02 µM | 3.71 µM |  | 
CCC1Oc2c(ccc(O)c2C)-c2c(C)cc(O)cc21 (stereo not drawn) | 0.008 µM | 0.435 µM |  | 
Cc1c(O)ccc2c1c(=O)oc1c(F)c(O)ccc12 | 0.054 µM | 1.58 µM |  | 
CCc1cc(OC)cc2c(=O)oc3c(C)c(O)ccc3c12 | 0.069 µM | 9.83 µM |  | 
Cc1c(O)ccc2c1oc(=O)c1c(C)c(N)ccc12 | 0.279 µM | 14.3 µM |  | 
Cc1cc(O)cc2c1-c1ccc(O)c(C)c1OC2C (stereo not drawn) | 0.024 µM | 1.21 µM |  | 
C=CCC1(C)Oc2c(ccc(O)c2C)-c2c(C)cc(O)c(C)c21 (stereo not drawn) | 0.013 µM | 0.157 µM |  | 
Cc1c(O)ccc2c1oc(=O)c1c(C)cccc12 | 0.093 µM | > 10 µM |  | 
Cc1c(O)cc(C)c2c1oc(=O)c1c(C)c(O)ccc12 | 0.0067 µM | 0.785 µM |  | 
COc1c(C)c(Br)c2c(=O)oc3c(C)c(O)ccc3c2c1C | 0.00115 µM | 0.225 µM |  | 
Cc1c(O)ccc2c1c(=O)oc1c(Br)c(O)ccc12 | 0.067 µM | 1.92 µM |  | 
Cc1c(O)ccc2c1OC(C)c1c-2ccc(O)c1C (stereo not drawn) | 0.008 µM | 0.335 µM |  | 
Cc1c(O)ccc2c1oc(=O)c1c(C)ccc(C)c12 | 0.08 µM | 3.07 µM |  | 
Cc1c(O)cc(C)c2c1oc(=O)c1cc(O)ccc12 | 0.027 µM | 0.488 µM |  | 
Cc1c(O)ccc2c1oc(=O)c1c(C)c(O)ccc12 | 0.0041 µM | 0.159 µM | 0.078 µM | 0.0072 µM

Structure (SMILES) | IC50 (Estrogen receptor beta [1]) | IC50 (Estrogen receptor) | IC50 (Estrogen receptor beta [2]) | EC50 (Estrogen receptor beta [3])
Cc1c(O)ccc2c1oc(=O)c1c(O)c(O)ccc12 | 0.082 µM | 1.28 µM |  | 
Cc1c(O)ccc2c1oc(=O)c1c(Br)cc(Br)cc12 | 0.024 µM | 0.597 µM |  | 
Cc1c(O)ccc2c1oc(=O)c1cc(O)cc(C)c12 | 0.054 µM | 0.583 µM |  | 
CCc1c(O)ccc2c1oc(=O)c1c(C)c(O)ccc12 | 0.0078 µM | 0.229 µM |  | 
Cc1cc(O)c(Cl)c2c(=O)oc3c(Cl)c(O)ccc3c12 | 0.018 µM | 2.52 µM |  | 
COc1cc2c(=O)oc3c(C)c(O)ccc3c2cc1Br | 0.077 µM | 10 µM |  | 
Cc1c(O)ccc2c1OC(C)(C)c1c-2ccc(O)c1C | 0.045 µM | 0.468 µM |  | 
Cc1c(O)c(Cl)cc2c1c(=O)oc1c(Cl)c(O)ccc12 | 0.019 µM | 0.524 µM |  | 
Cc1c(O)ccc2c1c(=O)oc1cc(O)ccc12 | 0.049 µM | 1.17 µM |  | 
Cc1c(O)ccc2c1oc(=O)c1c(C)c(NC=O)ccc12 | 0.957 µM | > 10 µM |  | 
Cc1c(O)ccc2c1oc(=O)c1ccccc12 | 1.45 µM | > 10 µM |  | 
Cc1cc2c(cc1Br)c(=O)oc1c(C)c(O)ccc12 | 0.215 µM | 6.85 µM |  | 
C/C=C/c1cccc2c(=O)oc3c(C)c(O)ccc3c12 | 0.116 µM | 3.03 µM |  | 
COc1ccc2c(c1)c(=O)oc1c(C)c(O)ccc12 | 0.308 µM | > 10 µM |  | 
C=Cc1cc(O)cc2c1-c1ccc(O)c(C)c1CC2 [EFFUSOL] | 0.012 µM |  |  | 
Cc1cc2c(=O)oc3c(C)c(O)ccc3c2c(C)c1Br | 0.057 µM | > 10 µM |  | 
COc1c(C)cc2c(=O)oc3c(C)c(O)ccc3c2c1C | 0.016 µM | 4.16 µM |  | 
Cc1c(O)ccc2c1COc1c-2ccc(O)c1C | 0.088 µM | 4.61 µM |  | 
Cc1c(O)ccc2c1c(=O)oc1cc(O)cc(C)c12 | 0.067 µM | 1.86 µM |  | 
C=Cc1cc(OC)cc2c(=O)oc3c(C)c(O)ccc3c12 | 0.053 µM | > 10 µM |  | 
